Test systems include 786-0 renal; OVCAR-4 ovarian; OVCAR-8 ovarian; SNB-75 CNS; RXF 393 renal; OVCAR-5 ovarian; CCRF-CEM leukemia; MALME-3M melanoma; SK-MEL-28 melanoma; MOLT-4 leukemia.
Test in all cases: inhibition of tumour cell growth, NCI panel, 48 h

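Method: 48-hour compound exposure of cells in 96-well plates, five concentrations, linear interpolation of endpoints. GI50 is the concentration that inhibits growth by half. TGI is the concentration that stops growth completely.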

For `O=C1Nc2ccccc2SC1C1SC(=S)N(Cc2ccccc2)C1=O` (centres undefined), the GI50 with 786-0 renal was 5.06 µM; in the test with OVCAR-4 ovarian, 13.9 µM; with OVCAR-8 ovarian it was 23.7 µM; in the test on SNB-75 CNS, 10.5 µM; in the test on RXF 393 renal, 4.21 µM; with OVCAR-5 ovarian, 20.2 µM. Also, the GI50 in the test with CCRF-CEM leukemia was 1.76 µM; in the test with MALME-3M melanoma, 15.9 µM; in the test with SK-MEL-28 melanoma it was 4.99 µM; in the test on MOLT-4 leukemia, 3.57 µM. The TGI is 16.5 µM with 786-0 renal; 33.7 µM with OVCAR-4 ovarian; more than 88.2 µM in the test with OVCAR-8 ovarian; 24.6 µM with SNB-75 CNS; more than 27.7 µM in the test on RXF 393 renal; 37 µM with OVCAR-5 ovarian. The TGI is more than 29.8 µM in the test on CCRF-CEM leukemia, more than 61.5 µM in the test on MALME-3M melanoma, 18 µM in the test with SK-MEL-28 melanoma and more than 36 µM in the test with MOLT-4 leukemia.
For the compound `N/C(=N\C(=S)N1CCCCC1)N1CCCCC1`, the TGI in the test with 786-0 renal, with OVCAR-4 ovarian, with OVCAR-8 ovarian, in the test with SNB-75 CNS, with RXF 393 renal and in the test on OVCAR-5 ovarian was more than 100 µM in each case. The TGI in the test with CCRF-CEM leukemia, with MALME-3M melanoma, with SK-MEL-28 melanoma and in the test with MOLT-4 leukemia was more than 100 µM each time.
Take `Oc1cccc(C2SCc3nc4ccccc4n32)c1` (centres undefined): the TGI in the test with 786-0 renal, with OVCAR-8 ovarian, with SNB-75 CNS, in the test on RXF 393 renal, in the test on OVCAR-5 ovarian and with CCRF-CEM leukemia was more than 100 µM in each case. Besides, the TGI with MALME-3M melanoma, in the test on SK-MEL-28 melanoma and in the test with MOLT-4 leukemia was more than 100 µM in each case.
For the compound `Cc1ccc(NC2=C(Cl)C(=O)c3nc(C)ccc3C2=O)cc1`, the GI50 is 1.75 µM with 786-0 renal; 1.28 µM in the test on OVCAR-4 ovarian; 1.47 µM in the test with OVCAR-8 ovarian; 1.81 µM in the test with SNB-75 CNS; 1.57 µM with RXF 393 renal; 1.87 µM with OVCAR-5 ovarian. The GI50 in the test with CCRF-CEM leukemia is 2.65 µM; with MALME-3M melanoma it was 1.75 µM; in the test on SK-MEL-28 melanoma, 1.93 µM; in the test on MOLT-4 leukemia it was 2.52 µM. Besides, the TGI was 3.23 µM in the test with 786-0 renal; 2.66 µM in the test on OVCAR-4 ovarian; 3.14 µM in the test with OVCAR-8 ovarian; 3.72 µM in the test with SNB-75 CNS; 2.96 µM in the test on RXF 393 renal; 3.62 µM in the test on OVCAR-5 ovarian. Besides, the TGI is more than 100 µM in the test with CCRF-CEM leukemia, 3.23 µM in the test on MALME-3M melanoma, 3.43 µM with SK-MEL-28 melanoma and more than 100 µM with MOLT-4 leukemia.
Turning to `Nc1cc(C(F)F)c(-c2nc(N3[C@@H]4CC[C@H]3COC4)nc(N3[C@@H]4CC[C@H]3COC4)n2)cn1`, the GI50 in the test on 786-0 renal is 0.306 µM; in the test on OVCAR-4 ovarian, 0.191 µM; with OVCAR-8 ovarian, 0.465 µM; in the test with SNB-75 CNS, 0.06 µM; in the test on RXF 393 renal it was 0.18 µM; with OVCAR-5 ovarian it was 0.3 µM. Moreover, the GI50 with CCRF-CEM leukemia is 0.69 µM; with MALME-3M melanoma it was 0.0713 µM; in the test on SK-MEL-28 melanoma, 0.203 µM; in the test with MOLT-4 leukemia, 0.796 µM. The TGI with 786-0 renal was 14.3 µM; in the test with OVCAR-4 ovarian it was 2.03 µM; with OVCAR-8 ovarian, more than 100 µM; in the test on SNB-75 CNS it was 0.793 µM; with RXF 393 renal, 0.816 µM; in the test on OVCAR-5 ovarian, 43 µM. Besides, the TGI in the test on CCRF-CEM leukemia was more than 100 µM; with MALME-3M melanoma it was 0.877 µM; with SK-MEL-28 melanoma it was 2.92 µM; in the test with MOLT-4 leukemia it was more than 100 µM.
Consider `O=C1OC(c2ccc([N+](=O)[O-])cc2)=N/C1=C\c1ccc(O)cc1`, for which the TGI in the test on 786-0 renal, in the test on OVCAR-4 ovarian, with OVCAR-8 ovarian, in the test with SNB-75 CNS, in the test on RXF 393 renal and in the test with OVCAR-5 ovarian was more than 100 µM in each case. Also, the TGI in the test on CCRF-CEM leukemia, in the test on MALME-3M melanoma, with SK-MEL-28 melanoma and in the test on MOLT-4 leukemia was more than 100 µM in each case.
On to `O=C(N/N=C/c1cc2ccccc2c2ccccc12)c1cc(O)c(O)c(O)c1`, for which the GI50 in the test on 786-0 renal is 2.77 µM; in the test with OVCAR-4 ovarian, 2.38 µM; in the test with OVCAR-8 ovarian it was 3.72 µM; with SNB-75 CNS it was 2.1 µM; in the test on RXF 393 renal, 2.77 µM; in the test with OVCAR-5 ovarian it was 8.85 µM. The GI50 in the test with CCRF-CEM leukemia is 2.87 µM; in the test on MALME-3M melanoma, 2.27 µM; in the test on SK-MEL-28 melanoma, 3.57 µM; in the test on MOLT-4 leukemia, 3.8 µM. Moreover, the TGI with 786-0 renal is 7.2 µM; with OVCAR-4 ovarian, 35.8 µM; with OVCAR-8 ovarian it was 15.6 µM; with SNB-75 CNS, 14.3 µM; in the test with RXF 393 renal, 10.1 µM; with OVCAR-5 ovarian, 25.7 µM. Moreover, the TGI with CCRF-CEM leukemia is more than 100 µM; in the test with MALME-3M melanoma, 7.19 µM; in the test on SK-MEL-28 melanoma it was 15.1 µM; in the test with MOLT-4 leukemia, 18.2 µM.
For `O=C(Nc1ccc(-n2cc(-c3ccncc3)c(-c3ccc(Cl)c(O)c3)n2)cc1)c1cc(Cl)cc(Cl)c1`, the GI50 is 1.53 µM with 786-0 renal; more than 94 µM with OVCAR-4 ovarian; 14.4 µM with OVCAR-8 ovarian; 2.79 µM in the test with SNB-75 CNS; 0.291 µM in the test with RXF 393 renal; 8.42 µM with OVCAR-5 ovarian. The GI50 in the test with CCRF-CEM leukemia is 4.25 µM; in the test on MALME-3M melanoma it was 2.56 µM; with SK-MEL-28 melanoma, 2.42 µM; with MOLT-4 leukemia, 5.71 µM. The TGI with 786-0 renal was 4.23 µM; with OVCAR-4 ovarian, more than 100 µM; in the test on OVCAR-8 ovarian it was more than 100 µM; in the test on SNB-75 CNS, more than 100 µM; in the test with RXF 393 renal, 0.879 µM; in the test on OVCAR-5 ovarian, 97.5 µM. Further, the TGI was more than 100 µM in the test with CCRF-CEM leukemia, 8.81 µM with MALME-3M melanoma, more than 30.8 µM with SK-MEL-28 melanoma and more than 100 µM with MOLT-4 leukemia.
Regarding `O=C(O)[C@@H]1C[C@@H](O)CN1`, the TGI in the test on 786-0 renal, with OVCAR-4 ovarian, in the test on OVCAR-8 ovarian, in the test on SNB-75 CNS, in the test on RXF 393 renal and in the test with OVCAR-5 ovarian was more than 100 µM throughout. Also, the TGI with CCRF-CEM leukemia, with MALME-3M melanoma, in the test with SK-MEL-28 melanoma and in the test on MOLT-4 leukemia was more than 100 µM each time.

Source of the values: PubChem BioAssay (NCI).
